Measurements taken from patent publication US11384113B2, “Cobalamin derivatives and their use for the treatment of diseases caused by lack of vitamin B12 supply” (Albert-Ludwigs-Universitaet Freiburg, priority 2017, dated 2022).
Residue numbers refer to the chain shown, from its start. Where two headings read alike, the source gives them in different places.

Legend:
[1] = base-on to base-off equilibrium; cited from earlier work
[2] = cited from earlier work
[3] = target: T1, human recombinant CblC wild type (Homo sapiens, UniProt Q9Y4U1); type: biochemical
T1 sequence (Q9Y4U1 1-282): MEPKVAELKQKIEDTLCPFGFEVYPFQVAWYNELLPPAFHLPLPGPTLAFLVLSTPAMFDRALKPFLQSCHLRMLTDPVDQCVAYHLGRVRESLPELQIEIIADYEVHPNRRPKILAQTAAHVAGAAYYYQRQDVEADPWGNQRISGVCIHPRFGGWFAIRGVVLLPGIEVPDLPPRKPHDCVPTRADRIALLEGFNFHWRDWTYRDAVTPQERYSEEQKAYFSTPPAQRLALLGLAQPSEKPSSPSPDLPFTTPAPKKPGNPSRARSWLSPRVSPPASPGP
Procedure: (§1) The ability of the newly synthesized Cbl derivatives to serve as substrates for CblC was examined (FIG. 12). CblC activity was measured by UV-visible spectroscopy according to published procedures. Analysis of reaction products was performed by mass spectrometry. We measured dealkylation and de-thiolation of Co—C and Co—S bonded Cbl derivatives, respectively, by wild type and mutant CblC proteins to determine whether these reactions could be supported in patients harboring an abnormal isoform of CblC with low or no enzymatic activity.
The enzymatic activity of CblC in the presence of CyaCbl and MPGCbl as substrates was evaluated under the same experimental conditions utilized to examine dealkylation of MeCbl and AdoCbl. […] The reaction was complete in less than 10 seconds, which is the time it takes to record the first spectrum after mixing of CblC-bound to CyaCbl or MPGCbl with 5 mM GSH (FIG. 12).
(§2) First, the ability of novel cobalamins described herein was tested to act as substrate for wild type CblC and to restore the lost activity of pathogenic variants, such as mutant Arg161Gly, that leads to early-onset form of the cblC disease.

[4] = target: T2, human recombinant CblC pathogenic mutant Arg161Gly (Homo sapiens, UniProt Q9Y4U1, R161G); type: biochemical
T2 sequence (Q9Y4U1 1-282 R161G): T1 sequence (Q9Y4U1 1-282) with R161G
Procedure: as §1, §2

[5] = test system: fibroblasts from healthy subjects; test: MMA in conditioned medium of control fibroblasts; type: cell-based, human
Text: (§3) Cultured cells from control (healthy neonatal subjects) or cblC fibroblasts were supplemented without exogenous Cbl (negative control), with commercial CNCbl (current therapy control) or with the newly synthesized cobalamins (test group). The ability of these compounds to support intracellular Cbl metabolism in the absence of CblC was examined by monitoring disease biomarker metabolites Hcy and MMA levels in the conditioned medium.
(§4) The cellular response to treatment with new derivatives CyaCbl and MPGCbl in comparison with current therapeutic form CNCbl was measured. The ability of the new cobalamin derivatives CyaCbl and MPGCbl to achieve metabolic control, i.e. reduction of for example MMA production by cblC fibroblasts in culture, was examined as described in previously published experimental protocols. FIG. 13 provides a comparison of the effect of CNCbl (0.001 mM) versus the same dose of CyaCbl or MPGCbl given to cultured fibroblasts from healthy subjects (HFF, NHDF, PCS, Wiesel, Control) or from cblC patients (WG1801, WG2176, WG3354, GM10011, GM02345B, GM02452C).
(§5) Additional examination of the effect of thiolatocobalamins CyaCbl and MPGCbl and sulfur-containing alkylcobalamin Me-S-MeCbl with respect to structural analogues that are NOT available for therapy was also carried out, for comparative purposes. The results of cellular response (healthy controls and cblC patient fibroblasts) to cobalamin treatment, as reflected by MMA levels is provided in Table 6.

[6] = test system: fibroblasts isolated from patients with cblC disease; test: MMA in conditioned medium of cblC patient fibroblasts; type: cell-based, human
Text: as §3, §4, §5

In the case of `C/C1=C2/[N-][C@H]([C@H](CC(N)=O)[C@@]2(C)CCC(=O)NC[C@@H](C)OP(=O)([O-])O[C@H]2[C@@H](O)[C@@H](n3cnc4cc(C)c(C)cc43)O[C@@H]2CO)[C@]2(C)N=C(/C(C)=C3N=C(/C=C4N=C1[C@@H](CCC(N)=O)C\4(C)C)[C@@H](CCC(N)=O)[C@]\3(C)CC(N)=O)[C@@H](CCC(N)=O)[C@]2(C)CC(N)=O.[CH2-][C@H]1O[C@@H](n2cnc3c(N)ncnc32)[C@H](O)[C@@H]1O.[Co]` [AdoCbl, Adenosylcobalamin], the “pKa of base on/base off” value [1] is listed as 3.50 and the “Redox potential [V] relative to NHE” value ([2]; electrochemical, DMF/methanol) is listed as −1.04 V.

In the case of `C/C1=C2/[N-][C@H]([C@H](CC(N)=O)[C@@]2(C)CCC(=O)NC[C@@H](C)OP(=O)([O-])O[C@H]2[C@@H](O)[C@@H](n3cnc4cc(C)c(C)cc43)O[C@@H]2CO)[C@]2(C)N=C(/C(C)=C3N=C(/C=C4N=C1[C@@H](CCC(N)=O)C\4(C)C)[C@@H](CCC(N)=O)[C@]\3(C)CC(N)=O)[C@@H](CCC(N)=O)[C@]2(C)CC(N)=O.[Co].[OH3+]` [H2O, Aquacobalamin], the “pKa of base on/base off” value [1] is listed as −2.40 and the “Redox potential [V] relative to NHE” value ([2]; 22° C.) is listed as 0.20 V.

For `CC1=C2N=C(C=C3N=C(C(C)=C4[N-]C(C(CC(N)=O)C4(C)CCC(=O)NCC(C)OP(=O)([O-])OC4C(CO)OC(n5cnc6cc(C)c(C)cc65)C4O)C4(C)N=C1C(CCC(N)=O)C4(C)CC(N)=O)C(CCC(N)=O)C3(C)C)C(CCC(N)=O)C2(C)CC(N)=O.CS[CH2][Co+2]` (stereo not shown) [Me—S—MeCbl], the “Product under ambient conditions, Wild type CblC” value ([3]; dealkylation, 5 mM GSH) was “H2OCbl/Cob(II)alamin”, the “Half-life of beta-axial ligand removal, Wild type CblC” value ([3]; human, pH 7.6) was 8.5 min and the “Product under ambient conditions, Mutant Arg161Gly” value ([4]; dealkylation, 5 mM GSH) was “Cob(II)alamin”. The “Half-life of beta-axial ligand removal, Mutant Arg161Gly” value ([4]; human, pH 7.6) was 12 min, the “MMA in conditioned medium” value ([5]; Controls (group value), after 7 days) was 0.122 μmol/mg protein and the “MMA in conditioned medium” value ([5]; Controls, after 7 days wash-off period without supplemental cobalamin) was 0.145 μmol/mg protein. For the same molecule, the “MMA in conditioned medium” value ([5]; HFF control fibroblasts, after 7 days) was 0.132 μmol/mg protein, the “MMA in conditioned medium” value ([5]; NHDF control fibroblasts, after 7 days) was 0.103 μmol/mg protein and the “MMA in conditioned medium” value ([5]; Wiezel control fibroblasts, after 7 days) was 0.132 μmol/mg protein. For the same molecule, the “MMA in conditioned medium” value ([6]; GM02345B cblC fibroblasts, after 7 days) was 0.150 μmol/mg protein, the “MMA in conditioned medium” value ([6]; GM02452C cblC fibroblasts, after 7 days) was 0.150 μmol/mg protein and the “MMA in conditioned medium” value ([6]; GM10011 cblC fibroblasts, after 7 days) was 0.041 μmol/mg protein. The “MMA in conditioned medium” value ([6]; WG1801 cblC fibroblasts, after 7 days) was 0.254 μmol/mg protein, the “MMA in conditioned medium” value ([6]; WG2176 cblC fibroblasts, after 7 days) was 0.083 μmol/mg protein and the “MMA in conditioned medium” value ([6]; WG3354 cblC fibroblasts, after 7 days) was 0.148 μmol/mg protein. For the same molecule, the “MMA in conditioned medium” value ([6]; cblC patients (group value), after 7 days) was 0.138 μmol/mg protein and the “MMA in conditioned medium” value ([6]; cblC patients, after 7 days wash-off period without supplemental cobalamin) was 0.177 μmol/mg protein.

For `CC1=C2N=C(C=C3N=C(C(C)=C4[N-]C(C(CC(N)=O)C4(C)CCC(=O)NCC(C)OP(=O)([O-])OC4C(CO)OC(n5cnc6cc(C)c(C)cc65)C4O)C4(C)N=C1C(CCC(N)=O)C4(C)CC(N)=O)C(CCC(N)=O)C3(C)C)C(CCC(N)=O)C2(C)CC(N)=O.O=[N+]([O-])[Co+2]` (stereo not shown) [NO2], the “pKa of base on/base off” value [1] is listed as −0.15.

For `CC1=C2N=C(C=C3N=C(C(C)=C4[N-]C(C(CC(N)=O)C4(C)CCC(=O)NCC(C)OP(=O)([O-])OC4C(CO)OC(n5cnc6cc(C)c(C)cc65)C4O)C4(C)N=C1C(CCC(N)=O)C4(C)CC(N)=O)C(CCC(N)=O)C3(C)C)C(CCC(N)=O)C2(C)CC(N)=O.N#C[S][Co+2]` (stereo not shown) [SCN^−], the “pKa of base on/base off” value [1] is listed as 3.40.

In the case of cyanocobalamin [CNCbl], the “pKa of base on/base off” value [1] is given as 0.10 and the “Redox potential [V] relative to NHE” value ([2]; electrochemical, DMSO/propanol) is given as −0.76 V.
